The values that follow are results of earlier work, collected in patent US7858659B2, “Redox therapy for tumors” (priority 2003, dated 2010).

Converted amounts (≈) assume the structure as drawn. Read-outs that look alike come from different tables or passages of the source.

The test system of data set [1] is Jurkat T-cell leukemia cells. To be noted: Sen et al. 1999; cited from earlier work.
The next data set has as its system normal lymphocytes. To be noted: Sen et al. 1999; cited from earlier work.
The target in data set [2] is T1, glutathione reductase (GR) (Mus musculus, UniProt P47791).
T1 construct: recovery of enzyme activity in exponentially growing murine leukemia (L1210) cells treated with 1,3-bis(2-chloroethyl)-1-nitrosourea
T1 sequence (P47791 27-500): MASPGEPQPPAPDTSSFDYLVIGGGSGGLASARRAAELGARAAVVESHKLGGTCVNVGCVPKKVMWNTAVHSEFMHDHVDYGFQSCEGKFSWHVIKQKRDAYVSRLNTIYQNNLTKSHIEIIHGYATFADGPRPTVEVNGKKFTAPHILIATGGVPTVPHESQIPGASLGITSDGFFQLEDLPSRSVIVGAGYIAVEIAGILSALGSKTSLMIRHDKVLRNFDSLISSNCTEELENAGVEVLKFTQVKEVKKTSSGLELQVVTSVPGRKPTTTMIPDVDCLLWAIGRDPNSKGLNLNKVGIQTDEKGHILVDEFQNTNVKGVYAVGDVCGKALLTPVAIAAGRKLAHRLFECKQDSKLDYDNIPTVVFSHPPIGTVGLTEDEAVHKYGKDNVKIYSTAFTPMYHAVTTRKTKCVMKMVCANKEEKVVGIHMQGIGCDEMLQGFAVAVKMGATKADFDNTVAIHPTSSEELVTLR
To be noted: Cohen 1988, cited from earlier work.

The test system of data set [3] is malignant cells. To be noted: Table 1; BSO: [Kito]; cited from earlier work.
Data set [4] deals with malignant cells. To be noted: cited from earlier work; for Effective Concentration in vitro: Example 4 table; for Concentration: Table 1.
For data set [5] the following is noted: cited from earlier work; for Solubility: Example 4 table.
A further data set deals with mice/rats. To be noted: cited from earlier work.
The subject of data set [6] is normal human bronchial fibroblasts and human bronchial epithelial cells. To be noted: cited from earlier work.
The subject of a further data set is A-427 and A-172. To be noted: various cancer cell lines, such as A-427 and A-172; cited from earlier work.
For a further data set, the system named is U937 cancer cells. To be noted: Lizard et al. 1998; cited from earlier work.
Data set [7] deals with prostate cancer cell lines. To be noted: green tea phenols; cited from earlier work.
For data set [8] the following is noted: Example 4 table; cited from earlier work.
The test system of data set [9] is malignant cells. To be noted: BSO by itself; Dai et al. 1999; cited from earlier work.
For a further data set, the system named is adults. To be noted: cited from earlier work.
The subject of another data set is mice. To be noted: mouse, in vivo; cited from earlier work.
In a further data set the test system is neuroblastoma cells. To be noted: Nicole et al. 1998; cited from earlier work.
For a further data set, the system named is rats. To be noted: cited from earlier work.

On to `O=C(O)CCCCC1CCSS1` (stereo not drawn) [α-lipoic acid], for which the values for the apoptosis result (in data set [1]; with normal lymphocytes) were “underwent apoptosis” and “did not”, respectively.

Take `O=NN(CCCl)C(=O)NCCCl` [Carmustine, N,N′-bis(2-chloroethyl)-N-nitrosourea]: the “activity of GR restored” value in data set [2] (12 hours, de novo synthesis) is 50%. The GR restored in data set [2] (24 hours, de novo synthesis) is given as 70%. For the same compound, the “concentration with which GR is inhibited” value in [2] (only carmustine present) is 10 µM. In addition, the “time within which GR is inhibited” value in [2] (with 10 μM) is on record as “½”. Besides, the apoptosis result in the data set on malignant cells [3] is recorded as “Induction”. For the same compound, in the data set on malignant cells [4], the “Effective Concentration in vitro” value was 0.05 µM. The Concentration in the data set with malignant cells [4] ([Cohen & Duval]) is 50 ng/mL. Also, in data set [5], the Solubility is 40 µM (≈ 8.56 µg/mL). Besides, the “Solubility [Merck]” value in [5] (Table 1) was 4 mg/L (≈ 18.7 µM). The “LD50 [Merck]” value in the data set on mice/rats is 25 to 30 mg/kg.

In the case of `C=CC=O` [acrolein], the “toxicity to normal cells” value in data set [6] was “highly toxic”. The cytotoxicity entry in the data set with A-427 and A-172 is given as “induced cytotoxicity”.

For the compound `CC(C)CCC[C@@H](C)[C@H]1CC[C@H]2[C@@H]3C(=O)C=C4C[C@@H](O)CC[C@]4(C)[C@H]3CC[C@]12C` [7-ketocholesterol], in the data set on U937 cancer cells, the apoptosis entry is given as “induced apoptosis”.

With `O=C(O[C@@H]1Cc2c(O)cc(O)cc2O[C@@H]1c1cc(O)c(O)c(O)c1)c1cc(O)c(O)c(O)c1` [(−)-epigallocatechin-3-gallate], the apoptosis entry in data set [7] is “induced apoptosis”.

Regarding `CCCCS(=N)(=O)CCC(N)C(=O)O` (stereo not drawn) [BSO, buthionine sulfoximine], the Toxicity in data set [8] is 10,000 microM; in the data set on mice, 9.6 g/kg (mice) →. Besides, the results for the apoptosis entry in the data set with malignant cells [9], with malignant cells [3] and in the data set on neuroblastoma cells were “did not induce significant apoptosis”, “Enhancement [Kito]” and “induced apoptosis”, respectively. In addition, in the data set with malignant cells [9], the “decrease in [GSH] in the cell” value was 70%. Also, the “Toxicity: nausea/vomiting” value in the data set with adults ([Bailey]) is given as “occasional”. In the data set with malignant cells [4], the “Effective Concentration in vitro” value was 100 µM. Further, the Concentration in the data set with malignant cells [4] (disulfiram: [Cen]) is 10 to 25 µM. In addition, in the data set with neuroblastoma cells, the “decrease of GSH content” value was 98%. Further, the Solubility result in data set [5] was “soluble”. Besides, the “Solubility [Merck]” value in data set [5] (Table 1, in words) is given as “Soluble”.

In the case of `CCN(CC)C(=S)SSC(=S)N(CC)CC` [Disulfiram], the Toxicity in [8] was 10,000 microM; in the data set with adults (adults) it was 3 g (adults). In the data set with rats, the “LD50 [Merck]” value was 8600 mg/kg (rats). The Solubility in data set [5] is 2,000 microM. Also, the “Solubility [Merck]” value in data set [5] (Table 1) is 0.02 g/100 ml.

Usually Solubility stands for how much of the substance goes into solution per volume.
